Data as given in patent US6110933A, “Amino acid derivatives and their use as phospholipase A2 inhibitor” (Fujisawa Pharmaceutical Co., Ltd., priority 1994, dated 2000).

Experiments:
PLA2 group II = assay: Inhibition of PLA2 group II; type: biochemical; settings: no concentration or figure given
PLA2 group I = assay: Test on the inhibitory effect against phospholipase A2 (PLA2); type: biochemical; settings: 83 ng/ml; PLA2 group I from porcine pancreas; preincubated with enzyme at 37° C. for 30 minutes; 5 μM [14C]phosphatidylcholine, pH 7.4
Description: Test on the inhibitory effect against phospholipase A2 (PLA2)
The substrate, [^14 C]phosphatidylcholine (L-3-phosphatidylcholine, 1-stearyl-2-[1-^14 C]arachidonyl, was dried under N2 gas and suspended in deionized water with a probe sonicater. The standard reaction mixture in a total volume of 800 μl contained Tris-HCl buffer (10 mM, pH 7.4), CaCl2 (5 mM) and 10 ng/ml enzyme, PLA2 group I (from porcine pancreas, 700 units/mg, Boehringer Mannheim Yamanouchi Co., Ltd.). The reaction was started by addition of 5 μM [^14 C]phosphatidylcholine (L-3-phosphatidylcholine, 1-stearyl-2-[1-^14 C]arachidonyl to the enzyme solution. Following incubation at 37° C. for 30 minutes, the reaction was terminated by addition of 2 ml of Dole's reagent^1). To determine the release of ^14 C-arachidonic acid from the phospholipid substrate, free fatty acid was extracted by the method of Natori et al^2), and counted in 8 ml of Liquifluor (Du Pont, New England Nuclear). On the inhibition assay, inhibitor or vehicle was preincubated with enzyme at 37° C. for 30 minutes. Each sample was dissolved in methanol (1.25% final). All data are the average of at least duplicate determinations corrected for none enzymatic hydrolysis. Data were expressed as percent inhibition.

## CCCCCCCCCCCCC[C@@H](CC(N)=O)OC(=O)[C@H](CCCC(=O)O)NC(=O)c1ccc(OC)cc1 [Example 9, (3S)-3-[(2S)-5-Carboxy-2-(p-methoxybenzoylamino)-pentanoyl]oxyhexadecanamide]
PLA2 group II
  inhibition of PLA2 group II: inhibited
PLA2 group I
  Percent inhibition: 87.1%
